“And” between values parts separate entries of the source, which are not always exact repeats. Identical values can stand only once.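 Grown in 96-well plates, cells were treated for 48 hours with each compound at five concentrations. Insufficient inhibition: endpoint recorded as highest concentration tested. At the GI50, growth is halved. TGI: concentration producing complete growth inhibition.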
Legend:
Assay in all cases: NCI tumour cell line growth inhibition, 48 h
NCI-H460 lung = system: NCI-H460 lung
PC-3 prostate = system: PC-3 prostate
M14 melanoma = system: M14 melanoma
BT-549 breast = system: BT-549 breast
EKVX NSCLC = system: EKVX NSCLC
MDA-MB-231 breast = system: MDA-MB-231 breast
MCF7 breast = system: MCF7 breast
A498 renal = system: A498 renal
HCT-15 colon = system: HCT-15 colon
CCRF-CEM leukemia = system: CCRF-CEM leukemia

| Structure (SMILES) | GI50 (NCI-H460 lung) [µM] | TGI (NCI-H460 lung) | GI50 (PC-3 prostate) [µM] | TGI (PC-3 prostate) [µM] | GI50 (M14 melanoma) | TGI (M14 melanoma) | GI50 (BT-549 breast) [µM] | TGI (BT-549 breast) [µM] | GI50 (EKVX NSCLC) | TGI (EKVX NSCLC) | GI50 (MDA-MB-231 breast) [µM] | TGI (MDA-MB-231 breast) [µM] | GI50 (MCF7 breast) [µM] | TGI (MCF7 breast) [µM] | GI50 (A498 renal) [µM] | TGI (A498 renal) | GI50 (HCT-15 colon) | TGI (HCT-15 colon) [µM] | GI50 (CCRF-CEM leukemia) | TGI (CCRF-CEM leukemia) |
| --- | --- | --- | --- | --- | --- | --- | --- | --- | --- | --- | --- | --- | --- | --- | --- | --- | --- | --- | --- | --- |
| CCc1ccc([OH2+])c(C(=O)[O-])c1.CCc1ccc([OH2+])c(C(=O)[O-])c1.CCc1ccc([OH2+])c(C(=O)[O-])c1.CCc1ccc([OH2+])c(C(=O)[O-])c1.[Cu+2].[Cu+2] | 52.6 | > 100 µM | > 70.5 | > 100 | > 100000 nM | > 100 µM | 78.6 | > 100 | > 100 µM | > 100 µM | > 100 | > 100 | 35 | > 100 | 21.2 | 40.5 µM | > 88.2 µM | > 100 |  |  |
| COc1cc2c(cc1O)CCN[C@@]21CS[C@H]2c3c(OC(C)=O)c(C)c4c(c3C(COC1=O)N1C2C2NC(Cc3cc(C)c(OC)c(O)c32)[C@@H]1O)OCO4 (some centres undefined) |  | < 0.01 µM |  | < 0.01 | 4.5 ng/mL | < 10 nM and 1.8e-07 µg/mL and 0.0045 µg/mL |  |  | 0.000588 ng/mL | < 10 nM and 1.3e-05 µg/mL |  | < 0.01 |  | 10.5 |  | < 10 nM and 6.8e-07 µg/mL and 0.0045 µg/mL | 0.00461 ng/mL and 4.5 ng/mL |  | 4.5 ng/mL | > 100 µM and 0.000154 µg/mL and 0.0045 µg/mL |
| NN=C1/C(=C\c2ccccc2)CCC/C1=C/c1ccccc1 |  | > 100 µM |  |  |  | > 100 µM |  |  |  | 89.1 µM |  |  |  |  |  | 95.8 µM |  | > 100 |  | 45 µM |
| CC/C(=C/c1ccc(OC)cc1)[N+](=O)[O-] | 2.11 | 4.47 µM | 1.98 | 3.87 | 1850 nM | 4.18 µM | 2.42 | 6.42 | 14.2 µM | 27.2 µM | 2.31 | 4.9 |  |  | 1.87 | 9.09 µM | 1.48 µM | 3.08 | 1.96 µM | 5.72 µM |
| O=C1c2c(c3c4ccccc4n(CC4CO4)c3c3[nH]c4ccccc4c23)C(=O)N1Cc1ccccc1 (centres undefined) |  | > 100 µM |  |  |  | > 100 µM |  |  |  |  |  |  |  |  |  | > 100 µM |  | > 100 |  | > 100 µM |
| N/N=C1/C(=O)N(c2ccc(Cl)cc2)C(=O)C(=O)C1c1nc2ccccc2s1 (centres undefined) |  | > 100 µM |  |  |  | > 100 µM |  |  |  | > 100 µM |  |  |  |  |  | > 100 µM |  | > 100 |  | > 100 µM |
| COc1cccc(/C=C\C(=O)c2ccccc2)c1 | 4.02 | 22.3 µM | 3.73 | 26.2 | 11700 nM | 28.8 µM | 10.8 | 24.3 |  |  | 17.1 | 36.2 | 2.57 | 18.6 | 11.4 | 26.2 µM | 2.4 µM | 10.1 | 6.79 µM | > 100 µM |
| CCOC(=O)C1=C(C)N(NC(=O)Nc2ccccc2)C2(N)N(NC(=O)Nc3ccccc3)C(C)=C(C(=O)OCC)C12C#N (centres undefined) |  | 33.1 µM |  |  |  | 34.6 µM |  |  |  |  |  |  |  |  |  | 45 µM |  | 37.1 |  | 71.9 µM |
| CC(C)(C)n1cc(-c2ccnc(NCCCNS(=O)(=O)c3cccc4ccccc34)c2)c(-c2cccc(O)c2)n1 | 1.93 | 3.8 µM | 1.85 | 5.57 | 1680 nM | 3.21 µM |  |  | 2.13 µM | 6.32 µM | 2.32 | 5.64 | 1.91 | 4.06 | 1.37 | 5.1 µM | 1.53 µM | 3.64 | 2.44 µM | > 100 µM |
| CC1=Nc2ccccc2S/C1=C1/C=NC(=NC#N)N=C1C(=O)Nc1cccc(Cl)c1 |  | > 100 µM |  |  |  | > 100 µM |  |  |  | > 100 µM |  |  |  |  |  | > 100 µM |  | > 100 |  | > 100 µM |
| C#Cc1c(C)c(/C=C/C(C)=C\C(=O)OC)n(C)c1C |  | > 100 µM |  |  |  | > 100 µM |  |  |  | > 100 µM |  |  |  |  |  | > 100 µM |  | > 100 |  | > 100 µM |
| N#Cc1c(N)oc2cc3c(C#N)c(N)oc3cc12 |  | > 100 µM |  |  |  | > 100 µM |  |  |  | > 100 µM |  |  |  |  |  |  |  | > 100 |  | > 100 µM |
| CC1OC(O[C@@H]2C=C3CC[C@@H]4[C@H](CC[C@]5(C)[C@@H](c6ccc(=O)oc6)CC[C@]45O)[C@@]3(C)CC2)C(O)C(O)C1O (some centres undefined) |  | 0.003 µM and 0.00049 µM |  | 0.00558 | 0.0885 nM | 0.0124 µM | 0.00615 |  |  | 0.003 µM and 0.00108 µM | 0.000383 | 0.0136 |  |  | 0.00127 |  |  |  |  |  |
| CCN(CC)c1ccc(N=Nc2ccc(-c3nc4cccnc4s3)cc2)cc1 |  | > 100 µM |  |  |  | > 100 µM |  |  |  | > 100 µM |  |  |  |  |  | > 100 µM |  |  |  | > 100 µM |
| CC(C)(c1ccc(C=O)o1)c1ccc(C(C)(C)c2ccc(C=O)o2)o1 |  | > 100 µM |  |  |  |  |  |  |  | > 100 µM |  |  |  |  |  | > 100 µM |  |  |  | > 100 µM |
| COc1cc(O)c(C(=O)C2Cc3ccccc32)c(OC)c1 (centres undefined) |  | > 100 µM |  |  |  | > 100 µM |  |  |  |  |  |  |  |  |  | > 100 µM |  | > 100 |  | > 100 µM |
| Cc1nc2ccccc2c(=O)n1/N=C(\N=Nc1cc(Cl)ccc1Cl)c1ccc(N(C)C)cc1 |  | > 100 µM |  |  |  |  |  |  |  | > 100 µM |  |  |  |  |  | > 100 µM |  | > 100 |  | > 100 µM |
| COc1ccc2c(c1O)[C@@]13CCCC=C1[C@@H](C2)N(C)CC3 |  | > 100 µM |  | > 100 |  | > 100 µM |  | > 100 |  | > 100 µM |  | > 100 |  | > 100 |  |  |  | > 100 |  | > 100 µM |
| COc1cc(/C=N\Nc2ccccc2)ccc1OC(=O)c1ccccc1 | 1.22 | > 46 µM | 0.921 | 22.7 | 677 nM | 15.8 µM | 8.34 | 62.3 |  |  | 1.91 | 32.2 | 1.57 | 23.7 | 20 | > 92.9 µM | 0.306 µM | 17.6 | 2.44 µM | > 100 µM |
| O=C(O)CCCCCNCc1cc2cc3c(cc2c2cc(OCc4ccccc4)ccc12)OCO3 | 1.7 | 3.33 µM |  |  | 1900 nM | 3.51 µM | 6.68 | 24.1 | 4.01 µM | 17.9 µM | 1.88 | 3.88 | 1.68 | 3.21 | 3.17 | 13.2 µM | 2.03 µM | 5.88 |  |  |

Source: PubChem BioAssay (NCI)
